How the values were obtained:
CYP1A2 [1] = target: T1, CYP1A2 (Homo sapiens, UniProt P05177); experiment: CYP inhibition in human liver microsomes, substrate cocktail, LC-MS/MS (phenacetin); format: in vitro ADME; conditions: metabolite acetaminophen, read-out: IC50 for HLM, CYP1A2
T1 construct: Pooled human liver microsomes (HLM, LOT 32556) were purchased from BD Gentest Corporation; tissue BD Gentest Corporation LOT 32556; host or cells: pooled human liver microsomes
T1 sequence (P05177 1-516): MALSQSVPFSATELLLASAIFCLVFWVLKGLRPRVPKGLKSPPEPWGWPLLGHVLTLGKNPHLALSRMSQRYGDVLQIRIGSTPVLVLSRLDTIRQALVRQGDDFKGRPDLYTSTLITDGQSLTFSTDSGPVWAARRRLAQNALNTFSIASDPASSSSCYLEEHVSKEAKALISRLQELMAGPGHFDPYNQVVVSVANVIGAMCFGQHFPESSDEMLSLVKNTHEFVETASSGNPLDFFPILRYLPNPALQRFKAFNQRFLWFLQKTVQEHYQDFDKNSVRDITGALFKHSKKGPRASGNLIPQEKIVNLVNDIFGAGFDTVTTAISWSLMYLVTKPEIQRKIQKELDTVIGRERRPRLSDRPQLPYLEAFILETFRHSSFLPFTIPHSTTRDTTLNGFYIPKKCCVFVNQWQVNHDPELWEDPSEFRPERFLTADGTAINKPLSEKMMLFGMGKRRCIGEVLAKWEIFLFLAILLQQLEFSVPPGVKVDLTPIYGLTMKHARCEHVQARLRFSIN
Source text: (§1) Positive controls (furafyline for CYP1A2, montelukast for CYP2C8, sulfaphenazole for CYP2C9, S-(+)-N-3-benzylnirvanol for CYP2C19, quinidine for CYP2D6, ketoconazole for CYP3A4) and specific substrates (phenacetin for CYP1A2, paclitaxel for CYP2C8, diclofenac for CYP2C9, S-mephenytoin for CYP2C19, dextromethorphan for CYP2D6, midazolam for CYP3A4) are consistent with our previous papers. The substrates were used at concentrations approximately equal to their respective Michaelis-Menten constant (Km) values: 10 μM phenacetin, 5 μM paclitaxel, 5 μM diclofenac, 200 μM S-mephenytoin, 5 μM dextromethorphan, and 2 μM midazolam. NADP^+ was added after a 15 min preincubation of all other components at 37 °C. After a given incubation time (30 min), the reactions were terminated by addition of 60 μL ice-cold acetonitrile containing gemfibrozil and buspirone as internal standards. Incubation samples were stored at −80 °C until used in liquid chromatography-tandem mass spectrometry (LC-MS/MS) analysis. The mixture was centrifuged at 3,500 rpm for 5 min. The supernatant was mixed with equal volume of a 1:1 mixture of methanol and water and 20 μL of the final mixture was used for LC-MS/ MS analysis. […]
(§2) The CYP inhibition potential were evaluated by measuring the formation of one or more metabolites of the test substrates. […]

CYP3A4 = target: T2, CYP3A4 (Homo sapiens, UniProt P08684); experiment: CYP inhibition in human liver microsomes, substrate cocktail, LC-MS/MS (midazolam); format: in vitro ADME; conditions: metabolite 1-hydroxymidazolam, read-out: IC50 for HLM, CYP3A4
T2 construct: Pooled human liver microsomes (HLM, LOT 32556) were purchased from BD Gentest Corporation; tissue BD Gentest Corporation LOT 32556; host or cells: pooled human liver microsomes
T2 sequence (P08684 whole entry): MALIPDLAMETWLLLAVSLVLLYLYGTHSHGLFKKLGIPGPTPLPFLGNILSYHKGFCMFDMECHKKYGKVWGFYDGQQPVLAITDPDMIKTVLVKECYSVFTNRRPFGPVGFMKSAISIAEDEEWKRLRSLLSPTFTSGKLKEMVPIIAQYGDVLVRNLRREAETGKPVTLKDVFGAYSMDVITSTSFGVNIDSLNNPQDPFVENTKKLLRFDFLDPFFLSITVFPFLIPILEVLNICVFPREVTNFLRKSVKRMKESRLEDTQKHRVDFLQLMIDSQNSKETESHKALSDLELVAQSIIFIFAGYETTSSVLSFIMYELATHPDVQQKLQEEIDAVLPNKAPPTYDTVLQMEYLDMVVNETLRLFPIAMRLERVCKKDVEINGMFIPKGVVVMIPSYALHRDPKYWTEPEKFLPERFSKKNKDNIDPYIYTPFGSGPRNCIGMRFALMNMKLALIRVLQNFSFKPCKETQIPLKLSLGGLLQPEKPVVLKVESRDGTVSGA
Source text: as §1, §2

rat CYP1A2 = conditions: cited from earlier work
CYP1A2 [2] = target: T3, CYP1A2 (Rattus norvegicus, UniProt P04799); conditions: 30 mg/kg; cited from earlier work
T3 sequence (P04799 1-513): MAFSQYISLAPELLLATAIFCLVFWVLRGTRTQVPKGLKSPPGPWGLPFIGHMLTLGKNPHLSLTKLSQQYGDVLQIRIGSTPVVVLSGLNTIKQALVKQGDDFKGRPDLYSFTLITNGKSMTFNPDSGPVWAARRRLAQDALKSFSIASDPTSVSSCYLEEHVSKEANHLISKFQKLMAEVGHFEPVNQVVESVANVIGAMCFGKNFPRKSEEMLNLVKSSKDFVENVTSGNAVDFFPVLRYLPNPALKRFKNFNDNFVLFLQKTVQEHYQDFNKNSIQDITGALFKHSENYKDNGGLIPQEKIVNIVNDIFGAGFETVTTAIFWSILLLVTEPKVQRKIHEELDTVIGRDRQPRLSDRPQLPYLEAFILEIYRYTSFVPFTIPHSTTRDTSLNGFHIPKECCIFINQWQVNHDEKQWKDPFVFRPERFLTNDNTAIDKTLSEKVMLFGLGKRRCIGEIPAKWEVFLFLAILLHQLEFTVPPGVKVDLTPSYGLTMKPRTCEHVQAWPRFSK

CYP1A2 [3] = target: T3, CYP1A2; experiment: CYP inhibition in rat liver microsomes, substrate cocktail, LC-MS/MS (phenacetin); format: in vitro ADME; parameters: Pooled rat liver microsomes were prepared from three male Sprague-Dawley rats; from tissue; host or cells: pooled liver microsomes of three male Sprague-Dawley rats, prepared at HD Biosciences Co; conditions: read-out: IC50 for RLM, CYP1A2
Source text: as §1, §2

**Q.** For O=C(O)[C@H]1O[C@@H](Oc2cc3oc(-c4ccc(O)cc4)cc(=O)c3c(O)c2O)[C@H](O)[C@@H](O)[C@@H]1O [scutellarin, Scutellarin], which IC50 (CYP1A2 [1]) is on record?
**A.** > 100 µM

**Q.** What about the IC50 (CYP3A4) of the same molecule?
**A.** > 100 µM

**Q.** What about the IC50 (rat CYP1A2; in vitro experiments) of the same molecule?
**A.** 108.2 ± 0.657 µM

**Q.** And the Ki (rat CYP1A2; weak mixed-type inhibition, read-out: Ki against the activity of CYP1A2)?
**A.** 95.2 µM

**Q.** What about the “inhibition of CYP1A2 activity in whole animal studies” value (CYP1A2 [2]) of the same molecule?
**A.** weakly inhibited

**Q.** What about the IC50 (CYP1A2 [3]) of the same molecule?
**A.** > 100 µM
